Measured values taken from patent US20110076332A1, “Dextran-chitosan based in-situ gelling hydrogels for biomedical applications” (priority 2009, published 2011).

Test system: Staphylococcus aureus (S. aureus)
Assay: Bacterial attachment and biofilm formation on hydrogels in 96-well plates, MTS assay
Type: cell-based
Conditions: whether or not a hydrogel was present
Description: Determination of bacteriostatic action against S. Aureus bacteria: Staphylococcus aureus (S. aureus) was used to study the resistance of selected dextran-chitosan hydrogels of the present invention to bacterial attachment and biofilm formation. Six different types of gels, having different chitosan-to-dextran ratios, proteins and bactericidal drugs, with six replicates each, were prepared in 96-well plates under sterile conditions. FIG. 18 is a bar chart showing the relative extent of bacterial growth, as estimated by MTS assay, for the various cases studied.
The chitosan and dextran solutions used in this study were prepared as described above. With reference to the labels used in FIG. 17, hydrogels were prepared with chitosan-dextran ratios of 1:1 (“1:1”), 2:1 (“2:1”) and 3:1 (“3:1”). Wells with chitosan sheets alone (“CS”), empty wells (“10̂8”), wells with vancomycin alone (“10̂8+VMC”) and wells with PBS alone (“PBS”) were used as controls. Additional hydrogels having chitosan-dextran ratios of 2:1 were prepared with fibronectin (“2:1+FN”), vancomycin (“2:1+VMC”) or both (“2:1+FN+VMC”) were also studied to understand the effect of drug loading and release on bacterial colony formation.
For the study, triplicate plates of each combination were seeded with S. aureus at a concentration of 1.0×10^8 bacteria/ml. The bacteria were allowed to attach and grow overnight (16 hours). […]

CN[C@H](CC(C)C)C(=O)N[C@H]1C(=O)N[C@@H](CC(N)=O)C(=O)N[C@H]2C(=O)N[C@H]3C(=O)N[C@H](C(=O)N[C@H](C(=O)O)c4cc(O)cc(O)c4-c4cc3ccc4O)[C@H](O)c3ccc(c(Cl)c3)Oc3cc2cc(c3O[C@@H]2O[C@H](CO)[C@@H](O)[C@H](O)[C@H]2O[C@H]2C[C@](C)(N)[C@H](O)[C@H](C)O2)Oc2ccc(cc2Cl)[C@H]1O [vancomycin]
bacterial colony formation: reduced bacterial colony formation
